According to ChEMBL document CHEMBL1142859, “Synthesis and characterization of a platinum(II) complex tethered to a ligand of the peripheral benzodiazepine receptor” (J Med Chem, 2007):

Target: Translocator protein (Rattus norvegicus, UniProt P16257)
Assay: Displacement of [3H]PK 11195 from PBR in Sprague-Dawley rat cerebral cortex
Assay type: tissue-based

Chain of Translocator protein (P16257 whole entry, looked up): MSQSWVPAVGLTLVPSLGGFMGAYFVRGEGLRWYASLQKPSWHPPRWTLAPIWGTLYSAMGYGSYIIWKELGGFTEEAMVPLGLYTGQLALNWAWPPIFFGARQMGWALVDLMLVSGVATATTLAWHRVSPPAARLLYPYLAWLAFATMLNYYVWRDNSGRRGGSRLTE

Q: `CCCN(CCC)C(=O)Cc1c(-c2nccs2)nc2c(Cl)cc(Cl)cn12` was tested. Which IC50 did it give?
A: 2.81 nM
